US20070010538A1, “Inhibition of pathogenic processes related to tissue trauma” (priority 1998, published 2007)
pIC50: −log10 of the molar value.

Legend:
[1] = test system: collagen α1(I) mRNA; assay: Collagen α1(I) mRNA level in primary human fibroblasts; type: cell-based; settings: tested at the level of RNA
Protocol: The same protocol was used as previously. Primary human fibroblasts were treated for 1 hr with 10^−8 M Halofuginone. […] Arrays include 265 genes known to be involved in various types of cell interactions.

[2] = test system: cKrox gene expression; assay: Northern blot for cKrox gene expression in human skin fibroblasts; type: cell-based; settings: primary culture
Protocol: (§1) Next, human skin fibroblasts were taken from a subject and were maintained in primary culture. Control cells were treated with vehicle while Halofuginone-treated cells were treated with Halofuginone as previously described. The cells were then harvested and subjected to RNA extraction and Northern blot analysis for collagen type I gene expression and for cKrox gene expression.

[3] = test system: collagen type I gene expression; assay: Northern blot for collagen type I gene expression in human skin fibroblasts; type: cell-based; settings: primary culture
Protocol: as §1

[4] = test system: β3 integrin chain; assay: RT-PCR for β3 integrin chain in MDA 435 breast carcinoma cells; type: cell-based, human; settings: MDA 435 cells, 24 h, 200 ng/ml
Protocol: (§2) Therefore, the effect of Halofuginone was investigated on the expression of αv, β3 and β5 integrin subunits in the highly aggressive MDA 435 human breast carcinoma cell line. Cells were cultured in the absence (FIG. 4, lanes A & B) or presence of increasing concentrations (10-400 ng/ml) of Halofuginone for 24 h (lane C: 400 ng/ml), 48 h (lanes D-G: 10, 50, 200, and 400 ng/ml, respectively) or 72 h (FIG. 4, lane H: 400 ng/ml). Total RNA was extracted, subjected to 1.1% formaldehyde-agarose gel electrophoresis, transferred to a nylon membrane and hybridized with ^32P-labeled PCR probe corresponding to αv. […] This effect was […] at higher concentrations (200-400 ng/ml) of Halofuginone (FIG. 4, lanes F-H). Next, RT-PCR was used to analyze the effect of Halofuginone on expression of the β3 and β5 integrin chains by the MDA 435 breast carcinoma cells. […] In contrast, there was no effect on expression of the β5 mRNA. As the αvβ3 integrin complex plays an important role in tumor angiogenesis, the anti-angiogenic effect of Halofuginone may be mediated in part by its inhibition of the β3 gene expression.

[5] = test system: β5 integrin chain; assay: RT-PCR for β5 integrin chain in MDA 435 breast carcinoma cells; type: cell-based, human; settings: MDA 435 cells, 24 h, 10-400 ng/ml
Protocol: as §2

[6] = test system: collagen α1(I) gene; assay: Ang II rat model: in situ hybridization of heart tissue with rat collagen α1(I) probe; type: in vivo; settings: rats given both Halofuginone and Ang II vs Ang II alone
Protocol: (§3) The experimental method was as follows. Male Sprague-Dawley rats were divided into four groups. Two groups were chronically infused with Ang II at the rate of 0.150 ng/min by implanted mini-pump. This dosage regimen will induce severe cardiac fibrosis. The other two groups of rats, control rats, were injected with saline. One group of Ang II-treated rats and one control group were daily injected intraperitoneally with 16 micrograms of Halofuginone. At the end of the experimental period, the rats were sacrificed and the heart was removed and weighed. Heart samples were then hybridized with a probe for rat collagen α1(I) expression, or with a probe for TGF β1 expression. For hybridization with one of the genetic probes, the sections were deparafinized in xylene, rehydrated through a graded series of ethanol solutions, rinsed in distilled water for 5 minutes and then incubated in 2×SSC at 70° C. for 30 minutes. The sections were then rinsed in distilled water and treated with pronase, 0.125 mg/ml in 50 mM Tris-HCl, 5 mM EDTA, pH 7.5, for 10 minutes. After digestion, the slides were rinsed with distilled water, post-fixed in 10% formalin in PBS and blocked in 0.2% glycine. After blocking, the slides were rinsed in distilled water, rapidly dehydrated through graded ethanol solutions and air-dried for several hours. […]

[7] = test system: αv integrin subunit; assay: Northern blot for integrin αv mRNA in MDA 435 breast carcinoma cells; type: cell-based, human; settings: MDA 435 cells
Protocol: as §2

[8] = test system: collagen type I gene expression; assay: Northern blot for collagen type I gene expression in myometrial and leiomyosarcoma cells; type: cell-based, human; settings: increasing concentrations, about 48 hours
Protocol: Myometrial and leiomyosarcoma cells were taken from the same patient and were plated into 10 cm plates in DMEM supplemented with 10% FCS. When the cells reached 80% confluence, the medium was replaced by serum free DMEM plus 0.1% BSA for 48 hours, washed and exposed to increasing concentrations of Halofuginone in the same medium for about 48 hours at about 37° C. The cells were then harvested and subjected to RNA extraction and Northern blot analysis for collagen type I gene expression.

[9] = test system: cell invasion through matrigel ECM; assay: Boyden chamber invasion assay; type: cell-based; settings: data not shown
Source text: Such inhibition supports the inclusion of type IV collagenase inhibition as part of the extracellular matrix economy mechanism, in which Halofuginone inhibits undesirable pathological processes such as tumor growth, progression and metastasis, as described previously.

[10] = test system: cytokine IL-1β release; assay: Cytokine IL-1β release assay (MDS Panlabs); type: cell-based
Protocol: (§4) The ability of Halofuginone to inhibit various biochemical processes according to a set of assays for determining the percent inhibition of specific binding or activity of particular cellular proteins is described in greater detail in Table 1 below. The assays were performed by MDS Panlabs Inc. (Bothell, […]., USA). These assays included: the inhibition of release of the cytokines IL-1β and TNF-α; and the inhibition of the transcription of NF-κB.

[11] = test system: cytokine TNF-α release; assay: Cytokine TNF-α release assay (MDS Panlabs); type: cell-based
Protocol: as §4

[12] = test system: Ang II-induced cardiac fibrosis; assay: Ang II-induced cardiac fibrosis in rats: histology and collagen volume quantitation (Sirius red); type: in vivo, rat
Protocol: The experimental method was as follows. Male Sprague-Dawley rats were divided into four groups. Two groups were chronically infused with Ang II at the rate of 0.150 ng/min by implanted mini-pump. This dosage regimen will induce severe cardiac fibrosis. The other two groups of rats, control rats, were injected with saline. One group of Ang II-treated rats and one control group were daily injected intraperitoneally with 16 micrograms of Halofuginone. At the end of the experimental period, the rats were sacrificed and the heart was removed and weighed. Heart samples were taken for histological examination. Briefly, the tissue samples were collected into phosphate-buffered saline (PBS) and fixed overnight in 4% paraformaldehyde in PBS at 4° C. Serial 5 μm sections were prepared after the samples had been dehydrated in graded ethanol solutions, cleared in chloroform and embedded in Paraplast. Differential staining of collagenous and non-collagenous proteins was performed with 0.1% Sirius red and 0.1% fast green as a counter-stain in picric acid. This procedure stains collagen red [Gascon-Barre, M., et al., J. Histochem. Cytochem., 37:377-381, 1989]. […] Indeed, the ventricular collagen volume fraction (CVF) was increased by threefold (p<0.05) in rats treated with Ang II, compared to rats treated with either Halofuginone alone or Halofuginone plus Ang II. In addition, the ventricular CVF for control rats was identical to that for rats treated with Halofuginone alone.

[13] = test system: MMP2 (72 kDa type IV collagenase); assay: Gelatin zymography of type IV collagenase activity in T50 bladder carcinoma cell cultures; type: cell-based
Protocol: Sub-confluent cell cultures were incubated for 6-24 h in serum-free DMEM. The collagenolytic activity was determined on a gelatin impregnated (1 mg/ml. Difco, Detroit, Mich.) SDS-PAGE 8% gel. Briefly, culture media samples were separated on the substrate impregnated gels under non reducing conditions, followed by 30 min incubation in 2.5% Triton X-100 (BDH, England). The gels were then incubated for 16 h at 37° C. in 50 mM Tris, 0.2 M NaCl, 5 mM CaCl2, 0.02% Brij 35 (weight/volume) at pH 7.5. At the end of incubation period, the gels were stained with 0.5% Coomassie G250 (Bio-Rad Richmond Calif.) in methanol/acetic acid/H2O (30:10:60). The intensity of the various bands was determined on a computerized densitometer (Molecular Dynamics type 300A).

[14] = test system: NF-κB transcription; assay: NF-κB transcription assay (MDS Panlabs); type: cell-based
Protocol: as §4

[15] = test system: H19 gene; assay: Northern blot for H19 gene expression in bladder carcinoma cell lines; type: cell-based, human; settings: 130 ng/ml
Protocol: RT112 and 5376 human bladder carcinoma cell lines were cultured in the absence and presence of Halofuginone (130 ng/ml, added 24 h or 72 h after seeding), and the expression of the H19 gene was evaluated by Northern blot analysis ([…]. et al., Arterioscler. Thromb. Vasc. Biol., Vol. 17, p. 194-202, 1997). […] Such inhibition also supports the inclusion of the inhibition of H19 gene expression as part of the extracellular matrix economy mechanism, as described previously.

[16] = test system: TGF β; assay: Ang II rat model: in situ hybridization of heart tissue with TGF-β1 probe; type: in vivo; settings: rats given Ang II plus Halofuginone vs Ang II
Protocol: as §3

SMILES: O=C(CC1NCCC[C@H]1O)Cn1cnc2cc(Br)c(Cl)cc2c1=O (stereo partly drawn) [Halofuginone]
- collagen α1(I) mRNA [1]: reduced
- cKrox gene expression [2]: promoted cKrox gene expression
- collagen type I gene expression [3]: inhibiting collagen type I gene expression
- β3 mRNA expression [4]: almost complete inhibition
- β5 mRNA expression [5]: no effect
- expression of collagen α1(I) gene in rat heart [6]: marked reduction
- αv mRNA expression (up regulation effect) ([7]; 200-400 ng/ml): minimal
- αv mRNA expression ([7]; 48 h, 10 and 50 ng/ml): up regulation
- collagen type I gene expression (products at 5.4 and 4.8 kb) [8]: inhibited collagen type I gene expression
- cell invasion through matrigel ECM [9]: inhibit cell invasion
- pIC50 [10]: 7.50
- pIC50 [11]: 8.17
- Ang II-induced morphological changes in rat heart (histology) ([12]; Ang II-infused rats, 16 micrograms daily intraperitoneally): substantially inhibited
- ventricular CVF ([12]; Halofuginone alone, without Ang II, two week period): did not alter
- ventricular collagen volume (CVF) ([12]; rats given both Ang II and Halofuginone vs Ang II alone, 16 micrograms daily i.p.): markedly reduced
- inhibition of the activity of MMP2 (72 kDa type IV collagenase) ([13]; 25 ng/ml): profound inhibition
- inhibition of the activity of MMP2 (72 kDa type IV collagenase) ([13]; 100 ng/ml): almost complete inhibition
- pIC50 [14]: 7.60
- expression of the H19 gene ([15]; 5376 bladder carcinoma cell line): substantial reduction
- expression of the H19 gene ([15]; RT112 bladder carcinoma cell line): substantial reduction
- Ang II-induced increase in expression of mRNA for TGF β in rat heart [16]: not affected
